Patent US5882905A, “Thermostable α-L-arabinofuranosidase from Aureobasidium pullulans” (The United States of America as represented by the …, priority 1997, dated 1999)
Several values for one entry are separate records, joined by “and”; a condition that tells them apart may be missing. Equal entries are not always repeated. Entries after “also recorded” stand apart in the source; their conditions may differ.

What was measured:
α-L-AFase [1] = test: Effect of metal ions and reagents on α-L-AFase activity; assay type: biochemical, Aureobasidium pullulans
Method: (§1) Enzyme assay. αL-arabinofuranosidase (α-L-AFase) activity was assayed in a reaction mixture (1 ml) containing 1 mM p-nitrophenyl α-L-arabinofuranoside (pNPαAF), 50 mM acetate buffer, pH 4.5 and appropriately diluted enzyme solution. After incubation at 50° C. for 30 min, the reaction was stopped by adding ice-cold 0.5M Na2 CO3 (1 ml) and the color formed was measured at 405 nm. One unit (U) of α-L-AFase activity was defined as the amount of enzyme that liberates 1 μmol p-nitrophenol (pNP) per min in the reaction mixture under these assay conditions.
Effect of metal ions and reagents.

α-L-AFase [2] = test: Effect of L-arabinose and other sugars on α-L-AFase activity; assay type: biochemical, Aureobasidium pullulans
Method: as §1
Effect of L-arabinose and other sugars.

[3] = system: Aureobasidium pullulans Y-21792; test: Effect of carbon source on growth and α-L-arabinofuranosidase production in shake flasks; assay type: cell-based; conditions: for Growth (A660) / L-arabinosidase (mU/ml culture) Supernatant / L-arabinosidase (mU/ml culture) Whole broth / time of maximum enzyme production, Supernatant (figure in parenthesis) / time of maximum enzyme production, Whole broth (figure in parenthesis): carbon source 1% w/v, 28° C.; for Growth (A660): 96 h, averages of duplicates; for L-arabinosidase (mU/ml culture) Supernatant / L-arabinosidase (mU/ml culture) Whole broth: maximum in time course; for time of maximum enzyme production, Supernatant (figure in parenthesis) / time of maximum enzyme production, Whole broth (figure in parenthesis): time course over 96 h; for share of the whole culture broth α-L-AFase activity that is extracellular: cultures grown on the named carbon source
Method: Organism, cultivation and enzyme production. The color variant strain NRRL Y-21792 of A. pullulans (also available as NRRL Y-12974) was obtained from the ARS culture collection, NCAUR, Peoria, Ill. The medium used for seed culture and enzyme production was CCY medium (Slininger et al., 1982, Biotechnol. Bioeng., 23:371-384) with the following composition (g/L): 10 ml of solution A, 10 ml of solution B. 100 ml of solution C, 10 g of yeast extract and 10 g of oat spelt xylan. Solution A was a trace mineral solution having the following ingredients (per L): 1.1 g of CaO, 0.4 g of ZnO, 5.4 g of FeCl3.6 H2 O, 0.25 g of CuSO4. 5H2 O, 0.24 g of CoCl2. 6H2 O, 0.06 g of H3 BO3 and 13 ml of concentrated HCl. Solution B (per L) contained 10.1 g of MgO and 45 ml of concentrated HCl. Solution C (per L) contained 64 g of urea, 12 g of KH2 PO4 and 1.8 g of Na2 HPO4. Oat spelt xylan was sterilized separately. The pH of the medium was adjusted to 5.0 with 1M HCl before inoculation. A 125-ml Erlenmeyer flask containing 50 ml of medium with oat spelt xylan (1%, w/v) as a carbon source was inoculated with a loopful of cells taken from a stock slant and incubated at 28° C. on a rotary shaker (200 rpm) for 2 days. The shake flasks (250-ml Erlenmeyer flask containing 100 ml medium with 1% oat spelt xylan) were inoculated with 2 ml of this culture and cultivated on a rotary shaker (200 rpm) at 28° C. After 3 days, the cells were removed from the culture broth by centrifugation (18,000×g, 20 min). The resulting supernatant solution was used as the crude enzyme preparation.
Medium and enzyme production. The media used for seed culture and enzyme production were prepared as described in Example 1 with the exception of the particular carbon source. The shake flasks (125-ml Erlenmeyer flask containing 50 ml medium) were inoculated with 2 ml of seed culture (prepared using L-arabinose as carbon source) and cultivated on a rotary shaker (200 rpm) at 28° C. for 4 days. At intervals, ~2 ml of the whole culture broth were withdrawn, and the cells and unutilized insoluble substrates were removed from the culture broth by centrifugation (18,000×g, 20 min).
Analytical procedures. α-L-AFase activity was assayed as described in Example 1. Cell growth was monitored by measuring optical density of the culture broth at 660 nm (A660).

[4] = target: α-L-AFase from P. capsulatum; conditions: Filho et al.; read-out: Ki (competitive inhibition); cited from earlier work
[5] = system: α-L-AFase from A. nidulans; conditions: L-Arabinose at 80 mM; Fernandez-Espinar et al.; cited from earlier work
purified α-L-AFase [6] = test: Substrate specificity and kinetic analysis with aryl-glycosides; assay type: biochemical, Aureobasidium pullulans; conditions: for Relative initial rate of hydrolysis (percentage of that obtained with pNPαAF): substrate 4 mM, enzyme 28 mU/ml, 15 min reaction
Method: as §1
(§2) Other methods. Protein was estimated by the method of Lowry et al. (1951, J. Biol. Chem., 193:265-275) with bovine serum albumin as the standard. Protein in the column effluents was monitored by measuring absorbance at 280 nm. Sodium dodecyl sulfate-polyacrylamide gel electrophoresis (SDS-PAGE) was performed on a 7.5% gel according to Laemmli (1970, Nature, 227:680-685). The molecular weight of the native enzyme was determined by gel filtration on Bio-Gel A-0.5m as described by Andrews (1965, Biochem. J., 91:595-606), using apoferritin (MW 443,000), sweet potato β-amylase (200,000), yeast alcohol dehydrogenase (150,000), bovine serum albumin (66,000) and ovalbumin (45,000) as standard proteins. […] The Km and Vmax values were determined by the double-reciprocal plot method of Lineweaver-Burk (1934, J. Am. Chem. Soc., 56:658-666) using the KINET software program. Arabinose analysis was performed by HPLC (Spectra-Physics, San Jose, Calif.) using an ion moderated partition chromatography column (Aminex HPX-87C). The column was maintained at 85° C., and the sugars were eluted with Milli-Q water at a flow rate of 0.6 ml/min. Peaks were detected by refractive index, and identified and quantified by comparison to retention times of authentic standards (L-arabinose, D-glucose, D-xylose).
Substrate specificity and kinetic analysis. Relative initial rates of hydrolysis of p-nitrophenyl-α-L-arabinopyranoside, p-nitrophenyl-β-D-glucoside, p-nitrophenyl-β-D-glucoside, p-nitrophenyl-β-D-xyloside, p-nitrophenyl-β-D-cellobioside and p-nitrophenyl-β-D-galactoside (4 mM each) by the purified α-L-AFase (28 mU/ml) were 3.4, 2.3, 1.7, 3.1, 0.0, and 0.1%, respectively (expressed as a percentage of that obtained with pNPαAF at pH 4.5 and 75° C., 15 min reaction). The rate dependence of the enzymatic reaction on the pNPαAF concentration at pH 4.5 and 75° C. followed Michaelis-Menten kinetics.

purified α-L-AFase [7] = test: Hydrolysis of arabinan, debranched arabinan and arabinoxylans (arabinose by HPLC); assay type: biochemical, Aureobasidium pullulans
Method: FIG. 4. Time course of arabinan (1%, w/v) hydrolysis by purified α-L-arabinofuranosidase (0.445 U/ml) from A. pullulans Y-21792 at pH 4.5 and 50° C.
as §2, with “Arabinose analysis was performed by HPLC (Spectra-Physics, San Jose, Calif.) using an ion moderated partition chromatography column (Aminex HPX-87C). The column was maintained at 85° C., and the sugars were eluted with Milli-Q water at a flow rate of 0.6 ml/min.” left out
Hydrolysis of arabinan, debranched arabinan and arabinoxylans. […] Only arabinose was detected in the reaction product. […]

O[C@H](CS)[C@H](O)CS (racemic) [DTT, dithiothreitol, reference compound]
effect on enzyme activity (α-L-AFase [1]; 10 mM): not affected; also recorded: not inhibited

[Ca+2] [Ca^2+]
requirement of metal ion for activity (α-L-AFase [1]; 5 mM): did not require

[Co+2] [Co^2+]
requirement of metal ion for activity (α-L-AFase [1]; 0.5 mM): did not require

O=C[C@H](O)[C@@H](O)[C@@H](O)CO [L-arabinose]
inhibition of α-L-AFase activity (α-L-AFase [2]; up to 1.2M (21.6%)): substantially no inhibition; also recorded: not at all inhibitory; also recorded: not inhibited
Growth (A660) [3]: 7.6
L-arabinosidase (mU/ml culture) Supernatant [3]: 199 mU/ml culture
L-arabinosidase (mU/ml culture) Whole broth [3]: 500 mU/ml culture
time of maximum enzyme production, Supernatant (figure in parenthesis) [3]: 48
time of maximum enzyme production, Whole broth (figure in parenthesis) [3]: 58
share of the whole culture broth α-L-AFase activity that is extracellular [3]: 40%
Ki [4]: 16.4 mM
reduction of the hydrolytic activity [5]: 40%

OC[C@H](O)C(O)[C@@H](O)CO [L-arabitol]
inhibition of α-L-AFase activity (α-L-AFase [2]; each at 0.11M): did not inhibit
Growth (A660) [3]: 7.2
L-arabinosidase (mU/ml culture) Supernatant [3]: 95 mU/ml culture
L-arabinosidase (mU/ml culture) Whole broth [3]: 441 mU/ml culture
time of maximum enzyme production, Supernatant (figure in parenthesis) [3]: 48
time of maximum enzyme production, Whole broth (figure in parenthesis) [3]: 34
share of the whole culture broth α-L-AFase activity that is extracellular [3]: 22%

[Mg+2] [Mg^2+]
requirement of metal ion for activity (α-L-AFase [1]; 5 mM): did not require

[Mn+2] [Mn^2+]
requirement of metal ion for activity (α-L-AFase [1]; 5 mM): did not require

O=C[C@H](O)[C@@H](O)[C@H](O)CO [Xylose]
inhibition of α-L-AFase activity (α-L-AFase [2]; each at 0.11M): did not inhibit
Growth (A660) [3]: 8.0
L-arabinosidase (mU/ml culture) Supernatant [3]: 88 mU/ml culture
L-arabinosidase (mU/ml culture) Whole broth [3]: 129 mU/ml culture
time of maximum enzyme production, Supernatant (figure in parenthesis) [3]: 48
time of maximum enzyme production, Whole broth (figure in parenthesis) [3]: 48
share of the whole culture broth α-L-AFase activity that is extracellular [3]: About 70%

O=C[C@H](O)[C@@H](O)[C@@H](O)[C@H](O)CO [galactose]
inhibition of α-L-AFase activity (α-L-AFase [2]; each at 0.11M): did not inhibit

O=C[C@H](O)[C@@H](O)[C@H](O)[C@H](O)CO [glucose]
inhibition of α-L-AFase activity (α-L-AFase [2]; each at 0.11M): did not inhibit

O=C[C@@H](O)[C@@H](O)[C@H](O)[C@H](O)CO [mannose]
inhibition of α-L-AFase activity (α-L-AFase [2]; each at 0.11M): did not inhibit

O=[N+]([O-])c1ccc(O[C@@H]2OC[C@H](O)[C@H](O)[C@H]2O)cc1 [p-nitrophenyl-α-L-arabinopyranoside]
Relative initial rate of hydrolysis (percentage of that obtained with pNPαAF) (purified α-L-AFase [6]; pH 4.5 and 75° C.): 3.4%

O=[N+]([O-])c1ccc(O[C@@H]2O[C@H](CO)[C@@H](O[C@@H]3O[C@H](CO)[C@@H](O)[C@H](O)[C@H]3O)[C@H](O)[C@H]2O)cc1 [p-nitrophenyl-β-D-cellobioside]
Relative initial rate of hydrolysis (percentage of that obtained with pNPαAF) (purified α-L-AFase [6]; pH 4.5 and 75° C.): 0.0%

O=[N+]([O-])c1ccc(O[C@@H]2O[C@H](CO)[C@H](O)[C@H](O)[C@H]2O)cc1 [p-nitrophenyl-β-D-galactoside]
Relative initial rate of hydrolysis (percentage of that obtained with pNPαAF) (purified α-L-AFase [6]; pH 4.5 and 75° C.): 0.1%

O=[N+]([O-])c1ccc(O[C@@H]2O[C@H](CO)[C@@H](O)[C@H](O)[C@H]2O)cc1 [p-nitrophenyl-β-D-glucoside]
Relative initial rate of hydrolysis (percentage of that obtained with pNPαAF) (purified α-L-AFase [6]; pH 4.5 and 75° C.): 2.3% and 1.7%

O=[N+]([O-])c1ccc(O[C@@H]2OC[C@@H](O)[C@H](O)[C@H]2O)cc1 [p-nitrophenyl-β-D-xyloside]
Relative initial rate of hydrolysis (percentage of that obtained with pNPαAF) (purified α-L-AFase [6]; pH 4.5 and 75° C.): 3.1%

O=C(O)c1cc[c]([Hg][Cl])cc1 [pCMB, p-chloromercuribenzoic acid, reference compound]
effect on enzyme activity (α-L-AFase [1]; 0.2 mM): not affected; also recorded: not inhibited

O=[N+]([O-])c1ccc(O[C@@H]2O[C@@H](CO)[C@H](O)[C@H]2O)cc1 [pNPαAF, p-nitrophenyl α-L-arabinofuranoside]
Vmax (purified α-L-AFase [6]; pH 4.5 and 75° C., reciprocal plot): 6.99 μmol pNP. min^-1.mg^-1 protein
Km (purified α-L-AFase [6]; pH 4.5 and 75° C., reciprocal plot, read-out: apparent Km): 260 µM
Substrate inhibition (purified α-L-AFase [6]; tested up to 8 mM): not observed; also recorded: not inhibited

OC[C@@H](O)[C@H](O)[C@@H](O)CO [xylitol]
inhibition of α-L-AFase activity (α-L-AFase [2]; each at 0.11M): did not inhibit
Growth (A660) [3]: 9.1
L-arabinosidase (mU/ml culture) Supernatant [3]: 47 mU/ml culture
L-arabinosidase (mU/ml culture) Whole broth [3]: 94 mU/ml culture
time of maximum enzyme production, Supernatant (figure in parenthesis) [3]: 58
time of maximum enzyme production, Whole broth (figure in parenthesis) [3]: 48

arabinogalactan
arabinose detected by HPLC as product of hydrolysis (purified α-L-AFase [7]): no arabinose was detected
Growth (A660) [3]: 3.1
L-arabinosidase (mU/ml culture) Supernatant [3]: 9 mU/ml culture
L-arabinosidase (mU/ml culture) Whole broth [3]: 45 mU/ml culture
time of maximum enzyme production, Supernatant (figure in parenthesis) [3]: 34
time of maximum enzyme production, Whole broth (figure in parenthesis) [3]: 34
